{
  "source": "patent US12202861B2",
  "about": "“Inducible, tunable, and multiplex human gene regulation using CRISPR-Cpf1” (The General Hospital Corporation, priority 2017, dated 2025)",
  "molecules": {"B1": {"name": "multiplex crRNAs: three LbCpf1 crRNAs (HBB, AR, NPY1R) encoded on a single U6-driven transcript (SEQ ID NO: 58) (nucleic acid)", "guide": "GAGGGCCTATTTCCCATGATTCCTTCATATTTGCATATACGATACAAGGCTGTTAGAGAGATAATTAGAATTAATTTGACTGTAAACACAAAGATATTAGTACAAAATACGTGACGTAGAAAGTAATAATTTCTTGGGTAGTTTGCAGTTTTAAAATTATGTTTTAAAATGGACTATCATATGCTTACCGTAACTTGAAAGTATTTCGATTTCTTGGCTTTATATATCTTGTGGAAAGGACGAAACACCGAATTTCTACTAAGTGTAGATTACTGATGGTATGGGGCCAAAATTTCTACTAAGTGTAGATCTCTAGGAACCCTCAGCCCCAATTTCTACTAAGTGTAGATAAGCCTCGGGAAACTGCCCTAATTTCTACTAAGTGTAGATTTTTTTT", "modifications": "misc_feature 1..397 crRNAs from Figure 2b"}},
  "assay_type_in_all_cases": "cell-based, human",
  "key": {"[1]": {"tested_on": "HBB", "test": "RT-qPCR activation of endogenous HBB gene promoter in HEK293 cells", "conditions": "single crRNA", "method": "(§1) FIGS. 1A-1E. Targeted human endogenous gene regulation using individual crRNAs with dLbCpf1-based activators • (A) Schematic showing direct dLbCpf1-VPR and dLbCpf-p65 activator fusion proteins. • (B) Activities of dLbCpf1-p65 or dLbCpf1-VPR using single crRNAs at three endogenous human genes (HBB, AR, and NPY1R) in human HEK293 cells. Relative activation of the indicated gene promoters was measured by RT-qPCR. Three separate individual crRNAs were targeted within promoter sequence 1 kb upstream of the transcription start site for each gene. Relative mRNA expression is calculated by comparison to the control sample in which no crRNA is expressed. (C) Analysis of various crRNAs targeted to the human CD5 and CD22 promoters. 32 crRNAs (16 for each gene) were designed to target sites located within promoter sequences 1 kb upstream or 500 bps downstream of the TSS of each gene. Repetitive sequences were not targeted. After 72 hours post-transfection, cells were stained with fluorescently labeled antibody for CD5 or CD22 protein and fluorescent-positive cells were quantified by flow cytometry. Error bars represent s.e.m. for three biological replicates. […] (D) Schematic illustrating drug-inducible bi-partite dLbCpf1-based activator fusion proteins. dLbCpf1 is fused to one to four DmrA domains and VPR or p65 is fused to a DmrC domain. Because DmrA and DmrC interact only in the presence of an A/C-heterodimerizer drug (red diamond), the bi-partite activator is only reconstituted in the presence of the drug. (E) Activities of drug-inducible bi-partite dLbCpf1-based activators using single crRNAs at three endogenous human genes (HBB, AR, and NPY1R) in human HEK293 cells. Relative activation of the indicated gene promoters was measured by RT-qPCR. […] Data shown in (B) and (E) represent three biological independent replicates and error bars indicate standard deviation (SD) of three technical replicates.\n(§2) (A) Schematic of an expression cassette designed to express multiple gRNAs encoded on a single transcript. The arrows indicate cleavage sites being processed by the RNase activity of dLbCpf1. (B) Schematic illustrating multiplex expression of three crRNAs each targeted to a different endogenous gene promoter in a single cell. (C) Simultaneous activation of three endogenous human genes using crRNAs expressed from a multiplex transcript or from individual transcripts with dLbCpf1-VPR direct fusions (left panel), dLbCpf1-DmrA(×4) and DmrC-VPR fusions (middle panel), and dLbCpf1-DmrA(×4) and DmrC-p65 fusions (right panel). Transcripts were measured in HEK293 cells using RT-qPCR with relative mRNA expression calculated by comparison to the control sample in which no crRNA is expressed. (D) Activities of MST crRNA with different dLbCpf1-based activators in human U20S cells. Graphs showing activation of three endogenous human genes with dLbCpf1-VPR direct fusions, dLbCpf1-DmrA(×4) and DmrC-p65 fusions, and dLbCpf1-DmrA(×4) and DmrC-VPR fusions and crRNAs expressed from a multiplex single transcript (MST) or from transcripts encoding a single crRNA. RNA expression was measured by RT-qPCR and relative expression shown was calculated by comparison to a control sample in which no crRNA is expressed. (E) Schematic illustrating multiplex expression of three crRNAs each targeted to the same endogenous gene promoter in the same cell. (F) Activities of direct dLbCpf1-p65 or dLbCpf1-VPR fusions with sets of three crRNAs expressed from a multiplex transcript or from individual transcripts on the HBB, AR, or NPY1R endogenous gene promoters. Transcripts were measured in HEK293 cells using RT-qPCR with relative mRNA expression calculated by comparison to the control sample in which no crRNA is expressed. (G) Activities of dLbCpf1-DmrA(×4) and DmrC-VPR fusions or with dLbCpf1-DmrA(×4) and DmrC-p65 fusions with sets of three crRNAs expressed from a multiplex transcript or from individual transcripts on the HBB, AR, or NPY1R endogenous gene promoters. […]"}, "[2]": {"tested_on": "AR", "test": "RT-qPCR activation of endogenous AR gene promoter in HEK293 cells", "conditions": "bi-partite, with dLbCpf1 fusions harboring two, three or four DmrA domains, single crRNA", "method": "as §1\n(A) Schematic of an expression cassette designed to express multiple gRNAs encoded on a single transcript. The arrows indicate cleavage sites being processed by the RNase activity of dLbCpf1. (B) Schematic illustrating multiplex expression of three crRNAs each targeted to a different endogenous gene promoter in a single cell. […] Transcripts were measured in HEK293 cells using RT-qPCR with relative mRNA expression calculated by comparison to the control sample in which no crRNA is expressed. […] RNA expression was measured by RT-qPCR and relative expression shown was calculated by comparison to a control sample in which no crRNA is expressed. […] Transcripts were measured in HEK293 cells using RT-qPCR with relative mRNA expression calculated by comparison to the control sample in which no crRNA is expressed. […]"}, "[3]": {"tested_on": "NPY1R", "test": "RT-qPCR activation of endogenous NPY1R gene promoter in HEK293 cells", "conditions": "single crRNA", "method": "as §1, §2"}, "[4]": {"tested_on": "HBB, AR, and NPY1R", "test": "Simultaneous (multiplex) activation of three endogenous genes in HEK293 cells, RT-qPCR", "conditions": "multiplex transcript vs single crRNA, HEK293, across the dLbCpf1-based activators", "text": "(A) Schematic of an expression cassette designed to express multiple gRNAs encoded on a single transcript. The arrows indicate cleavage sites being processed by the RNase activity of dLbCpf1. (B) Schematic illustrating multiplex expression of three crRNAs each targeted to a different endogenous gene promoter in a single cell. (C) Simultaneous activation of three endogenous human genes using crRNAs expressed from a multiplex transcript or from individual transcripts with dLbCpf1-VPR direct fusions (left panel), dLbCpf1-DmrA(×4) and DmrC-VPR fusions (middle panel), and dLbCpf1-DmrA(×4) and DmrC-p65 fusions (right panel). Transcripts were measured in HEK293 cells using RT-qPCR with relative mRNA expression calculated by comparison to the control sample in which no crRNA is expressed. […] RNA expression was measured by RT-qPCR and relative expression shown was calculated by comparison to a control sample in which no crRNA is expressed. […] Transcripts were measured in HEK293 cells using RT-qPCR with relative mRNA expression calculated by comparison to the control sample in which no crRNA is expressed. […] Transcripts were measured in HEK293 cells using RT-qPCR with relative mRNA expression calculated by comparison to the control sample in which no crRNA is expressed. […] Cells were collected at various time points and relative mRNA expression levels were measured by RT-qPCR compared to a negative control. […]"}, "[5]": {"conditions": "bi-partite with dLbCpf1-DmrA fusions"}, "[6]": {"conditions": "bi-partite, with dLbCpf1 fusions harboring two, three or four DmrA domains"}},
  "data": [
    {"molecule": "DmrC-VPR: CAG-DmrC-NLS-FLAG-VPR; DmrC dimerization domain fused to VPR activator (SEQ ID NO: 49)", "values": [
      {"measurement": "dependence of maximal activation on A/C heterodimerizer drug", "setting": "[1]; [5]", "result": "dependent on the presence of the A/C heterodimerizer drug"},
      {"measurement": "maximum level of activation relative to direct dLbCpf1-VPR fusions", "setting": "[1]; [5]", "result": "approximately half"},
      {"measurement": "activation of transcription", "setting": "[1]; [6]", "result": "activation"},
      {"measurement": "activation of transcription", "setting": "[2]", "result": "lack of an effect"},
      {"measurement": "dependence of maximal activation on A/C heterodimerizer drug", "setting": "[3]; [5]", "result": "dependent on the presence of the A/C heterodimerizer drug"},
      {"measurement": "maximum level of activation relative to direct dLbCpf1-VPR fusions", "setting": "[3]; [5]", "result": "approximately half"},
      {"measurement": "activation of transcription", "setting": "[3]; [6]", "result": "activation"}
    ]},
    {"molecule": "B1", "values": [
      {"measurement": "magnitude of activation somewhat lower than with expression of a single crRNA", "setting": "[4]", "result": "18 to 55", "unit": "%"}
    ]}
  ]
}
